Values belong to the compound of their own block, whether it stands above or below them.
Experiments:
[1] = tested on: locust brain barrier; set-up: method as in Andersson et al. [2013]; conditions: locust ex vivo model; ref Andersson et al. [2013]; cited from earlier work
[2] = tested on: locust brain barrier; conditions: for Concentration-dependent ex vivo brain uptake profile: exposure 3, 10, 30 and 100 μmol/L for 5 min, Fig. 3, n = 3
[3] = tested on: Pgp efflux transport; conditions: 3 μmol/L, 5 min, without verapamil; Fig. 5; n = 3
[4] = tested on: Pgp transporter; conditions: 3 and 10 μmol/L exposure, 5 min, with and without verapamil; Fig. 4; n = 3
[5] = tested on: Pgp transporter; assay: In vivo locust brain uptake (brain:hemolymph ratio) with or without co-injected Pgp inhibitor CsA; conditions: 15 min after injection, data not shown
[6] = locust hemolymph; injection of 20 μL of 20 μmol/kg dose; samples at 0.08, 0.25, 0.75, 2 and 6 h; n = 6
Method: Clearance of test compounds from the hemolymph was measured by repeated sampling of 10 μL hemolymph from the individual locust at 5, 15, 45, 120, and 360 min after intrahemolymph administration (20 μL) of the test compound solution (20 μmol/kg body weight). The 10 μL hemolymph samples were added to microcentrifuge tubes (Eppendorf) containing 40 μL ice-cold insect buffer.

[7] = tested on: Pgp transporter; conditions: locust brain barrier model; ref Nielsen et al. [2011]; cited from earlier work
[8] = tested on: Pgp transporter homologue (Mdr65); set-up: method as in Mayer et al. [2009]; conditions: Drosophila melanogaster; ref Mayer et al. [2009]; cited from earlier work
[9] = tested on: Pgp transporter; conditions: locust ex vivo and mouse Pgp KO/WT; ref Andersson et al. [2013]; Doran et al. [2005]; cited from earlier work

SMILES: CC(NC(C)(C)C)C(=O)c1cccc(Cl)c1 (stereo not drawn) [Bupropion]
Ex vivo brain uptake after increased exposure concentrations [1]: more than dose-related

Ratio of permeabilities (dynamic range of the locust ex vivo model) ([2]; Cbz (high permeability) versus atenolol (low permeability)): ~64 | Concentration-dependent ex vivo brain uptake profile [2]: linear increase | Ex vivo brain uptake when exposure temperature raised from 2°C to 30°C [3]: markedly increased
SMILES: NC(=O)N1c2ccccc2C=Cc2ccccc21 [Cbz, carbamazepine]

SMILES: CN(C)C(=O)C(CCN1CCC(O)(c2ccc(Cl)cc2)CC1)(c1ccccc1)c1ccccc1 [Loperamide, loperamide]
Ex vivo brain uptake/concentration on co-exposure to verapamil [4]: significantly increased | Concentration-dependent ex vivo brain uptake profile [2]: increased more than linearly | Hemolymph concentration when injected alone or co-injected with CsA [5]: no difference

SMILES: CC(C)NCC(O)COc1cccc2ccccc12 (stereo not drawn) [Propranolol, propranolol]
Elimination (drug elimination constant calculated from C = Coe^−kt) [6]: −0.98 ^1 h^−1

SMILES: C=C[C@H]1C[N@@]2CC[C@H]1C[C@@H]2[C@@H](O)c1ccnc2ccc(OC)cc12 [Quinidine, quinidine]
Uptake into the locust brain with Pgp inhibitor verapamil [7]: significantly increased | Ex vivo brain uptake when exposure temperature raised from 2°C to 30°C [3]: corresponding increase in quinidine uptake was not seen

SMILES: COC(=O)c1ccccc1-c1c2ccc(=N)cc-2oc2cc(N)ccc12 [Rho123, rhodamine 123]
Dm brain concentration when co-injected with the Pgp inhibitor CsA [8]: increases

SMILES: CN(C)CCCC1(c2ccc(F)cc2)OCc2cc(C#N)ccc21 (stereo not drawn) [citalopram]
Pgp transporter efflux liability [9]: affected by Pgp transporter efflux

From publication PMC4186439, “Characterization of a novel brain barrier ex vivo insect-based P-glycoprotein screening model” (Pharmacology Research & Perspectives, 2014)
